The values below come from patent EP0635577B1, “Screen for inhibitors of melanin biosynthesis” (BASF AKTIENGESELLSCHAFT, priority 1993, dated 1995).

Structures can show the parent of a compound that is named as a salt.

The test system of one experiment is Cladosporium cucumerinum. Nature of the experiment: melanin biosynthesis inhibition screen, disk diffusion assay on solidified culture. The class given is cell-based.
Conditions: not given
The method, then:
Potato dextrose medium (PDM) for the screening test is prepared by melting
The mixture is autoclaved as 150 ml aliquots at 121°C for 25 minutes.
A chloramphenicol stock solution is prepared to contain 15 mg chloramphenicol per mL absolute ethanol and is stored at -20°C.
Conidia from Cladosporium cucumerinum, 10^7/mL in 0.03% Tween 20™, retain their viability for at least 12 weeks of storage in 1.8 ml cryovials at -85°C. Inoculum for running the screen are raised once every three months and stored without a cryoprotectant at the working concentration of 10^7 conidia/mL.
Fresh inoculum suspensions are prepared from conidial suspensions stored at -85°C. A cryovial is thawed by hand-heat, and 200 uL spread on the surface of PDA in 9 cm Petri dishes. Plates are placed in a resin box (to prevent fungal escape) and incubated at room temperature, 40 cm below laboratory fluorescent lights. Seven days later conidia are collected. Five mL of 0.03% Tween 20™ is added to each plate, and the conidia are released by rubbing the mycelium with a glass rod. The suspension is passed through a layer of sterile Miracloth™ and the concentration adjusted to 10^7 conidia/mL in 0.03% Tween 20™ using a haemocytometer. Aliquots of 1 mL are dispensed into cryovials and placed in a polystyrene holder to freeze slowly to -85°C.
For the test, 150 mL of PDM is cooled to 35°C, and 0.1 mL of chloramphenicol stock solution is added by gentle swirling. A vial of C. cucumerinum conidial suspension (10^7 conidia/ml in Tween 20™) thawed with hand-heat is mixed into the growth medium using gentle swirling. The mixture is poured immediately into a Biotray, and the agar is allowed to solidify.
Test compounds are applied to 0.63 cm (¼ inch) filter disks. Each test includes a positive control, 200 ng tricyclazole in 20% dimethyl sulphoxide (DMSO). The plate is incubated at room-temperature (∼23°C) 40 cm below laboratory fluorescent lights. The plate is read 40 hours later. […] The Biotrays are autoclaved before disposal.
The compounds are applied as 20 ul droplets from a 1 mg/ml stock solution.
A general note: In agar diffusion tests the substance spreads into inoculated agar from a disc or well.
With `Nc1ncnc2c1ccn2[C@@H]1O[C@H](CO)[C@@H](O)[C@H]1O` [Tubercidin], the “Observation: fungal thinning, radius” value is “fungal thinning, 10 mm radius”. As for `CN[C@H](CC(C)C)C(=O)N[C@H]1C(=O)N[C@@H](CC(N)=O)C(=O)N[C@H]2C(=O)N[C@H]3C(=O)N[C@H](C(=O)N[C@H](C(=O)O)c4cc(O)cc(O)c4-c4cc3ccc4O)[C@H](O)c3ccc(c(Cl)c3)Oc3cc2cc(c3O[C@@H]2O[C@H](CO)[C@@H](O)[C@H](O)[C@H]2O[C@H]2C[C@](C)(N)[C@H](O)[C@H](C)O2)Oc2ccc(cc2Cl)[C@H]1O` [Vancomycin HCl], the Observation entry is recorded as “no effect on growth or pigmentation”.

The experiment is the same for the next values; noted with them: Antifungal Panel; effect on growth and pigmentation in words; 20 ul droplets from a 1 mg/ml stock solution on filter disk; read 40 hours later.
Regarding `C=CC1(C)OC(=O)N(c2cc(Cl)cc(Cl)c2)C1=O` (centres unmarked) [Ronilon], the Observation entry is “very slight effect on growth”. Regarding Maneb, the Observation result is given as “no effect on pigmentation, growth thin”.

Staying with this experiment, now noted: Antifungal Panel; growth inhibition zone; 20 ul droplets from a 1 mg/ml stock solution on filter disk; read 40 hours later.
For the compound `C[C@@H]([C@H](N)C(=O)N[C@H](C(=O)O)[C@H]1O[C@@H](n2ccc(=O)[nH]c2=O)[C@H](O)[C@@H]1O)[C@H](O)c1ccc(O)cn1` [Nikkomycin], the “Observation: inhibits, radius cleared” value was “inhibits, 38 mm radius cleared”. On the same count and under the same terms, the result for `CP(=O)(O)CC[C@H](N)C(=O)O` [Phosphenothricin] reads “inhibits, 20 mm radius cleared”; that for `NC(=O)OC[C@H](O)[C@@H](O)[C@H](N)C(=O)N[C@H](C(=O)O)[C@H]1O[C@@H](n2cc(C(=O)O)c(=O)[nH]c2=O)[C@H](O)[C@@H]1O` [Polyoxin D], “inhibits, 7 mm radius cleared”; that for `COC(=O)c1ccccc1S(=O)(=O)NC(=O)Nc1nc(C)cc(C)n1` [Sulfometuron methyl], “inhibits, 6 mm radius cleared”. Regarding `Cc1cccc(N(C)C(=S)Oc2ccc3ccccc3c2)c1` [Tolnaftate], the “Observation: inhibits, radius cleared” value was “inhibits, 13 mm radius cleared”.

As for `CCCCCCCCCCCCCN1CC(C)OC(C)C1` (centres unmarked) [Tridemorph], the “Observation: inhibits, radius cleared” value is “inhibits, 6 mm radius cleared”.

Antimycin: the “Observation: inhibits, radius cleared” value is “inhibits, 13 mm radius cleared”. Turning to Noconazole, the “Observation: inhibits, radius cleared” value is given as “inhibits, 8 mm radius cleared”.

For the compound Tunicamycin, the “Observation: inhibits, radius cleared” value is given as “inhibits, 22 mm radius cleared”.

The experiment is the same for the next values; noted with them: C. cucumerinum Antibiotic Panel; effect on growth and pigmentation in words; screen of Example 1.
Consider `Cc1cc(=O)n2c3c(c4c(cc13)c(CO)cc(=O)n4C)OC2` [Nybomycin], for which the Observation entry was “no effect on growth or pigmentation”. Turning to `CCCCC[C@@H](O)[C@H]1C(=O)O[C@H](C)[C@@H](O)/C=C/C=C/C=C/C=C/C=C(\C)[C@@H](O)[C@H](O)[C@H](O)C[C@H](O)C[C@H](O)C[C@H](O)C[C@H](O)C[C@@H]1O` [Pentamycin], the Observation entry was “no effect on growth or pigmentation”. Take `CN(C)c1ncnc2c1ncn2[C@@H]1O[C@H](CO)[C@@H](N)[C@H]1O` [Puromycin Aminonucleoside]: the Observation result is “no effect on growth or pigmentation”. Regarding `C[C@@H]1C[C@@H]2CCCC(O)=C2C(=O)O1` [Ramulosin], the Observation result is recorded as “no effect on growth or pigmentation”. For `CSC[S@+]([O-])C[C@H](CO)NC(=O)/C=C/c1c(C)[nH]c(=O)[nH]c1=O` [Sparsomycin], the Observation entry was “no effect on growth or pigmentation”.

In the case of `[H]/N=C(/N)N[C@H]1[C@H](O)[C@@H](O)[C@H](O[C@@H]2O[C@@H](C)[C@](O)(C=O)[C@H]2O[C@@H]2O[C@@H](CO)[C@H](O)[C@@H](O)[C@@H]2NC)[C@@H](N/C(N)=N\[H])[C@@H]1O` [Streptomycin Sulfate], the Observation result is listed as “no effect on growth or pigmentation”. Consider `C[C@@H]1C/C=C/C=C/C=C/C=C/[C@H](O[C@@H]2O[C@H](C)[C@@H](O)[C@H](N)[C@@H]2O)C[C@@H]2O[C@](O)(C[C@@H](O)C[C@H]3O[C@@H]3/C=C/C(=O)O1)C[C@H](O)[C@H]2C(=O)O` [Tennecetin], for which the Observation entry is “no effect on growth or pigmentation”. For `CC[C@H]1OC(=O)C[C@@H](O)[C@H](C)[C@@H](O[C@@H]2O[C@H](C)[C@@H](O[C@H]3C[C@@](C)(O)[C@@H](O)[C@H](C)O3)[C@H](N(C)C)[C@H]2O)[C@@H](CC=O)C[C@@H](C)C(=O)/C=C/C(C)=C/[C@@H]1CO[C@@H]1O[C@H](C)[C@@H](O)[C@@H](OC)[C@H]1OC` [Tylosin Tartrate], the Observation entry was “no effect on growth or pigmentation”.

For Aureofungin, the Observation result is reported as “no effect on growth or pigmentation”. On to Dermostatin, for which the Observation entry is “no effect on growth or pigmentation”. As for Flavofungin, the Observation result is “no effect on growth or pigmentation”.

Hamycin: the Observation result was “no effect on growth or pigmentation”. With Monicamycin, the Observation result is given as “no effect on growth or pigmentation”. For Neohumidin, the Observation entry is recorded as “no effect on growth or pigmentation”.

Neomycin Sulfate: the Observation result is given as “no effect on growth or pigmentation”. Consider Protomycin/Streptimidone, for which the Observation entry is reported as “no effect on growth or pigmentation”. As to Ristocedin, the Observation entry is listed as “no effect on growth or pigmentation”. On to Tetrahydro Spiramycin Base, for which the Observation entry was “no effect on growth or pigmentation”.

For the compound Trichomycin, the Observation result was “no effect on growth or pigmentation”.

The experiment is the same for the next values; noted with them: C. cucumerinum Antibiotic Panel; growth inhibition zone; screen of Example 1.
With `C[C@H]1C[C@H](C)C(=O)[C@@H]([C@H](O)CC2CC(=O)NC(=O)C2)C1` [Naramycin B], the “Observation: inhibits, radius cleared” value is given as “inhibits, 15 mm radius cleared”.

On to `CC1CCC(=O)C=CC(=O)OC(C)CCC(=O)C=CC(=O)O1` (centres unmarked) [Pyrenophorin], for which the “Observation: inhibits, radius cleared” value is on record as “inhibits, 12 mm radius cleared”.

Turning to `Cc1cc(O)c2c(c1)C(=O)[C@]13C(=C2O)C(=O)[C@@H]2[C@H](O)[C@H]1[C@@H]1[C@@H](O)[C@H]3C(=O)C3=C(O)c4c(O)cc(C)cc4C(=O)[C@]312` [Rugulosin], the “Observation: inhibits, radius cleared” value is recorded as “inhibits, 9 mm radius cleared”. Take `CC(=O)Nc1c2sscc-2n(C)c1=O` [Thiolutin]: the “Observation: inhibits, radius cleared” value is “inhibits, 23 mm radius cleared”. Take Azalomycin: the “Observation: inhibits, radius cleared” value is “inhibits, 14 mm radius cleared”. As for Thioaurin, the “Observation: inhibits, radius cleared” value is “inhibits, 16 mm radius cleared”.

The experiment is the same for the next values; noted with them: C. cucumerinum Antibiotic Panel; screen of Example 1.
For the compound Sulfocidin, the “Observation: fungal thinning, radius” value is “fungal thinning, 5 mm radius”.

Another experiment has as its system wild-type strain M. grisea.
Experiment: not given
The settings on record: 15 ng in 1.5% acetone; onion epidermal pieces; 25°C for 24 hours.
`Cc1cccc2sc3nncn3c12` [tricyclazole] displayed an inhibition of penetration of 100%.

The same experiment, now with this note: in the presence of the inhibitor; about 90 to 95% of germinating wild-type conidia penetrate without it.
Regarding `Cc1cccc2sc3nncn3c12` [tricyclazole], the “penetration of freshly harvested onion epidermis by wild-type M. grisea” value is given as “no penetration”.
